We go through one molecule from US20060147569A1, “Anti-depression formulations” (priority 2005, published 2006).

Structures can show the parent of a compound that is named as a salt.

For one assay, the system named is serum cortisol. The experiment in a line: Serum cortisol level in CMS-treated rats (radioimmunoassay). Type of assay: in vivo. Here is the method: (§1) 3. Administration and Doses • Non CMS-treated Saline group: 10 ml/kg/day. • CMS-treated Saline group: 10 ml/kg/day. • Composition I (200) group: 200 mg/kg/day. • Composition I (150) group: 150 mg/kg/day. • Fluoxetine group (positive control): 10 mg/kg/day.
(§2) Animals therein were divided randomly into the following four subgroups: • (1) Composition I (200) group: received composition I at 200 mg/kg/day; • (2) Composition I (150) group: received composition I at 150 mg/kg/day; • (3) Fluoxetine group: received fluoxetine 10 mg/kg/day; (positive control); • (4) CMS-treated saline group: received saline 10 mL/kg/day. (negative control).
24 h after the last test of sucrose intake, between 10:00 a.m. and 11:00 a.m., all animals were decapitated quickly to get venous blood. Serum was separated by centrifugation at 3000 rpm and stored at −20° C. until assay of cortisol concentration. Brain tissues were rapidly removed on the ice-plate. The tissues were washed with cold saline, blotted dry and stored at −80° C. until assays of monoamine oxidase A and B (MAO-A and MAO-B) activity.
Serum cortisol level was assayed using a radioimmunoassay method following the manufacturer's instructions. (Manufacturer: Bejing Furui Biotechnology Company, P.R. China. Product code: FR-FJ-055).

The subject of the next assay is CMS-treated rats. In words: Sucrose intake test in chronic mild stress (CMS) model. As to conditions: for sucrose intake: CMS-treated rats, 10 mg/kg oral daily. It is filed as in vivo.
Source text: In the CMS model, rats are exposed sequentially, over a period of weeks, to a variety of mild stressors, and the measure most commonly used to track the effects is a decrease in consumption of a palatable sweet solution. This […] of antidepressants to increase sucrose intake in CMS model of rats. […] These impairments could be reversed by chronic administration of antidepressants such as tricyclic antidepressants, selective serotonin reuptake inhibitors and monoamine oxidase inhibitors. […] (Willner P. 1997)
Male Wistar rats, weighing 180-220 g at the start of the experiment, were used in the experiments. During the one week before experiment, each rat was housed individually in a home cage, and had free access to food and water. They were maintained on a 12 h light/dark cycle under controlled temperature 25±2° C. and tested in the light phase.
as §1
The above substances at various concentrations were dissolved in saline. The volume of the suspension administered was based on body weight measured immediately prior to each dose, respectively. All groups were administered orally for six weeks, once per day. All groups except for Non-CMS-treated saline group received CMS treatment as described below.
All animals were trained to consume 1% (w/v) sucrose solution in water. The training was conducted twice a week for consecutive 3 weeks. In the training, the rats in the home cage were deprived of food and water for 14 hours. After 14 hours, about 30 ml of 1% (w/v) sucrose solution in a pre-weighed bottled was placed in the home cages. 1 hour later, the bottle was taken out from the cage and weighed. The sucrose intake was calculated as follows: […]
Calculation: Weight of Bottle Before Intake (g)—Weight of Bottle After Intake (g)
After three weeks of training, when the sucrose intake of rats was stabilized, the rats started to receive further treatment. During the whole treatment period, the sucrose intakes of rats were monitored once every week from 9:00 a.m. to 10:00 a.m. with the same procedures as described above.
After the three-weeks training, the rats were randomly divided into two groups: the non-CMS treated group and CMS-treated group. The stress group of animals was subjected to the CMS procedure for a period of four consecutive weeks. Each week of stress regime is consisted of six different stress situations. They involved two periods of food and water deprivation, two periods of 45 o cage tilt, two periods of intermittent illumination (lights on and off every 2 h), two periods of soiled cage (200 mL water in sawdust bedding), two periods of paired housing, and two periods of low intensity stroboscopic illumination (150 flashes/min). All of the stressors were 12-14 h of duration and were applied individually and sequentially, day and night.
as §2
The rats in non-CMS treated group received saline solution at 10 mL/kg orally. All administrations were given orally once daily at 10:00 a.m. for consecutive 6 weeks.

Turning to `CNCCC(Oc1ccc(C(F)(F)F)cc1)c1ccccc1` (stereo not shown) [Fluoxetine, Fluoxetine Hydrochloride], the “effect on serum cortisol levels (in words)” value in the assay on serum cortisol (CMS-treated rats, fluoxetine (10 mg/kg)) is “did not cause any significant alteration”. In the assay on serum cortisol (serum of CMS-treated rats, 10 mg/kg oral daily for 6 weeks), this molecule showed a Cortisol level of 28.76 ± 0.56 ng/mL. Moreover, the “recovery of the sucrose intake (in words)” value in the assay on CMS-treated rats (CMS rats, fluoxetine-treated (10 mg/kg)) is recorded as “not as strong as those treated with Composition (I)”. Moreover, the sucrose intake in the assay on CMS-treated rats (week 0 of drug treatment) turned out to be 5.3 ± 1.4 g; with CMS-treated rats (week 1), 5.5 ± 1.3 g; in the assay with CMS-treated rats (week 2), 5.9 ± 1.4 g; in the assay with CMS-treated rats (week 3), 7.3 ± 1.5 g; with CMS-treated rats (week 4), 8.9 ± 1.1 g; in the assay on CMS-treated rats (week 5), 10.4 ± 1.3 g. For the same molecule, in the assay with CMS-treated rats (week 6), the sucrose intake is 13.9 ± 1.3 g.
